{"source": "ChEMBL document CHEMBL5678818", "about": "“Discovery of potent SOS1 inhibitors that block RAS activation via disruption of the RAS-SOS1 interaction” (Proc Natl Acad Sci U S A, 2019)", "key": {"[1]": {"tested_on": "GTPase KRas (Homo sapiens), P01116 [G12C]", "assay": "Stabilization of N-terminal GST-tagged recombinant human KRAS G12C mutant (1 to 169 residues) expressed in Escherichia coli assessed as change in melting temperature at 100 uM with heating from 25 to 85 degreeC by thermal shift assay"}, "[2]": {"tested_on": "Tyrosine-protein kinase ABL1 (Homo sapiens), P00519 [T315I]", "assay": "Inhibition of nonphosphorylated ABL1 T315I mutant (unknown origin) assessed as residual activity at 100 nM by KINOMEscan analysis relative to control"}, "[3]": {"target": "cAMP-dependent protein kinase catalytic subunit alpha (Homo sapiens) (UniProt P17612)", "assay": "Inhibition of PKAC-alpha (unknown origin) assessed as residual activity at 100 nM by KINOMEscan analysis relative to control"}, "[4]": {"target": "Cyclin-dependent kinase 17 (Homo sapiens) (UniProt Q00537)", "assay": "Inhibition of PCTK2 (unknown origin) assessed as residual activity at 100 nM by KINOMEscan analysis relative to control"}, "[5]": {"tested_on": "Epidermal growth factor receptor (Homo sapiens), P00533 [G719S]", "assay": "Inhibition of EGFR G719S mutant (unknown origin) assessed as residual activity at 100 nM by KINOMEscan analysis relative to control"}, "[6]": {"target": "Serine/threonine-protein kinase PAK 4 (Homo sapiens) (UniProt O96013)", "assay": "Inhibition of PAK4 (unknown origin) assessed as residual activity at 100 nM by KINOMEscan analysis relative to control"}, "[7]": {"target": "Serine/threonine-protein kinase MRCK gamma (Homo sapiens) (UniProt Q6DT37)", "assay": "Inhibition of DMPK2 (unknown origin) assessed as residual activity at 100 nM by KINOMEscan analysis relative to control"}, "[8]": {"target": "BDNF/NT-3 growth factors receptor (Homo sapiens) (UniProt Q16620)", "assay": "Inhibition of TRKB (unknown origin) assessed as residual activity at 100 nM by KINOMEscan analysis relative to control"}, "[9]": {"target": "Mitogen-activated protein kinase 6 (Homo sapiens) (UniProt Q16659)", "assay": "Inhibition of ERK3 (unknown origin) assessed as residual activity at 100 nM by KINOMEscan analysis relative to control"}, "[10]": {"target": "T1, Muscle, skeletal receptor tyrosine-protein kinase (Homo sapiens) (UniProt O15146)", "T1 sequence (whole entry)": "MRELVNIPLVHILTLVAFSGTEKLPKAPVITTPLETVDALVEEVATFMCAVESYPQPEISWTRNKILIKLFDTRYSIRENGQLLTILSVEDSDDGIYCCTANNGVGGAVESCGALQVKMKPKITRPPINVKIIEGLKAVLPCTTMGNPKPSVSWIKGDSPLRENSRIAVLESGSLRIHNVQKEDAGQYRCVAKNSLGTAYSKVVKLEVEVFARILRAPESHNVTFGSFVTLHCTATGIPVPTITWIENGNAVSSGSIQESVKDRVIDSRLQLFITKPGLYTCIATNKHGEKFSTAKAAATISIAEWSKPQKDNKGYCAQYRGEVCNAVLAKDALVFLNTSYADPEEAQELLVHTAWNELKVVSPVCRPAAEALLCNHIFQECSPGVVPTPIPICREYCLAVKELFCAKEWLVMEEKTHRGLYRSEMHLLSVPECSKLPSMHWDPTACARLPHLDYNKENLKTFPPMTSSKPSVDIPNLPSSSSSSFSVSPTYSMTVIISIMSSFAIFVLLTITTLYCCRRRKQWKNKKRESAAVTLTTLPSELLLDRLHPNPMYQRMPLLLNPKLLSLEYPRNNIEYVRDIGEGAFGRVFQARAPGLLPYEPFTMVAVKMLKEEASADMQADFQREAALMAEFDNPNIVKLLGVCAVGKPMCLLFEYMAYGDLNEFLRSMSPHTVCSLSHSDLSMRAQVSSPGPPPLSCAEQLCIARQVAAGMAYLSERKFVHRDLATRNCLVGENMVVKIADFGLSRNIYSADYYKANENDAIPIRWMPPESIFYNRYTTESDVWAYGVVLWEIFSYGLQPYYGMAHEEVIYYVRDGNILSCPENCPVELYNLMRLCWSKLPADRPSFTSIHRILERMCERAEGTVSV", "assay": "Inhibition of MUSK (unknown origin) assessed as residual activity at 100 nM by KINOMEscan analysis relative to control"}, "[11]": {"tested_on": "Mast/stem cell growth factor receptor Kit (Homo sapiens), P10721 [D816H]", "assay": "Inhibition of KIT D816H mutant (unknown origin) assessed as residual activity at 100 nM by KINOMEscan analysis relative to control"}}, "data": [{"smiles": "CNCc1ccccc1-c1csc([C@@H](C)Nc2nc(C)nc3cc(OC)c(OC)cc23)c1", "note": "[BAY-293]", "values": [{"measurement": "ΔTm", "setting": "[1]", "value": 0.21, "unit": "°C"}]}, {"smiles": "COc1cc2ncnc(N[C@H](C)c3cccc4ccccc34)c2cc1OC", "values": [{"measurement": "Activity", "setting": "[2]", "value": 100, "unit": "%"}, {"measurement": "Activity", "setting": "[3]", "value": 80, "unit": "%"}, {"measurement": "Activity", "setting": "[4]", "value": 86, "unit": "%"}, {"measurement": "Activity", "setting": "[5]", "value": 96, "unit": "%"}, {"measurement": "Activity", "setting": "[6]", "value": 87, "unit": "%"}, {"measurement": "Activity", "setting": "[7]", "value": 33, "unit": "%"}, {"measurement": "Activity", "setting": "[8]", "value": 96, "unit": "%"}, {"measurement": "Activity", "setting": "[9]", "value": 40, "unit": "%"}, {"measurement": "Activity", "setting": "[10]", "value": 98, "unit": "%"}, {"measurement": "Activity", "setting": "[11]", "value": 89, "unit": "%"}]}]}
